Results taken from US10485235B2, “Aryloxypyrimidinyl ethers as herbicides” (FMC Corporation, priority 2015, dated 2019).

What was measured:
Assay type in all cases: in vivo
[1] = tested on: wheat (Triticum aestivum); assay: Test A postemergence, wheat; conditions: Triticum aestivum, post-emergence, 240 h, postemergence, 0 to 100 scale, 0 is no effect, 100 is complete control, approximately 10 days, read-out: Plant response rating, Wheat; for plant injury at 125 g/ha: 125 g ai/ha; for plant injury at 500 g/ha: 500 g ai/ha
Summary of the method: (§1)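 Ratings run 0–100, where 100 is complete control, and were scored visually against untreated plants about 10 days after treatment under greenhouse conditions. Formulated chemicals were sprayed either onto the soil surface after seeding (preemergence) or onto one- to two-leaf seedlings 2–10 cm high (postemergence).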

[2] = tested on: ragweed (common ragweed, Ambrosia elatior); assay: Test A preemergence, ragweed; conditions: Ambrosia artemisiifolia, pre-emergence, 240 h, Preemergence, 0 to 100 scale (0 no effect, 100 complete control), read-out: Plant response rating, Ragweed; for pest or weed control at 125 g/ha: 125 g ai/ha; for pest or weed control at 500 g/ha: 500 g ai/ha
Summary of the method: as §1

[3] = tested on: foxtail, giant (giant foxtail, Setaria faberii); assay: Test A preemergence, giant foxtail; conditions: Setaria faberi, pre-emergence, 240 h, Preemergence, 0 to 100 scale (0 no effect, 100 complete control), read-out: Plant response rating, Foxtail, Giant; for pest or weed control at 125 g/ha: 125 g ai/ha; for pest or weed control at 500 g/ha: 500 g ai/ha
Summary of the method: as §1

[4] = tested on: ryegrass, Italian (Italian ryegrass, Lolium multiflorum); assay: Test A postemergence, Italian ryegrass; conditions: Lolium multiflorum, post-emergence, 240 h, postemergence, 0 to 100 scale, 0 is no effect, 100 is complete control, approximately 10 days, read-out: Plant response rating, Ryegrass, Italian; for pest or weed control at 125 g/ha: 125 g ai/ha; for pest or weed control at 500 g/ha: 500 g ai/ha
Summary of the method: as §1

[5] = tested on: barnyardgrass (Echinochloa crus-galli); assay: Test A preemergence, barnyardgrass; conditions: Echinochloa crus-galli, pre-emergence, 240 h, Preemergence, 0 to 100 scale (0 no effect, 100 complete control), read-out: Plant response rating, Barnyardgrass; for pest or weed control at 125 g/ha: 125 g ai/ha; for pest or weed control at 500 g/ha: 500 g ai/ha
Summary of the method: as §1

kochia (Kochia scoparia) = assay: Test A preemergence, kochia; conditions: Bassia scoparia, pre-emergence, 240 h, Preemergence, 0 to 100 scale (0 no effect, 100 complete control), read-out: Plant response rating, Kochia; for pest or weed control at 125 g/ha: 125 g ai/ha; for pest or weed control at 500 g/ha: 500 g ai/ha
Summary of the method: as §1

corn (Zea mays) = assay: Test A postemergence, corn; conditions: Zea mays, post-emergence, 240 h, postemergence, 0 to 100 scale, 0 is no effect, 100 is complete control, approximately 10 days; for Corn plant response rating (crop injury, 0 = no effect, 100 = complete kill) at 125 g/ha: 125 g ai/ha; for Corn plant response rating (crop injury, 0 = no effect, 100 = complete kill) at 500 g/ha: 500 g ai/ha
Summary of the method: as §1

[6] = tested on: ragweed (common ragweed, Ambrosia elatior); assay: Test A postemergence, ragweed; conditions: Ambrosia artemisiifolia, post-emergence, 240 h, postemergence, 0 to 100 scale, 0 is no effect, 100 is complete control, approximately 10 days, read-out: Plant response rating, Ragweed; for pest or weed control at 125 g/ha: 125 g ai/ha; for pest or weed control at 500 g/ha: 500 g ai/ha
Summary of the method: as §1

[7] = tested on: galium (catchweed bedstraw, Galium aparine); assay: Test A postemergence, galium; conditions: Galium, post-emergence, 240 h, postemergence, 0 to 100 scale, 0 is no effect, 100 is complete control, approximately 10 days, read-out: Plant response rating, Galium; for pest or weed control at 125 g/ha: 125 g ai/ha; for pest or weed control at 500 g/ha: 500 g ai/ha
Summary of the method: as §1

[8] = tested on: sedge, umbrella (small-flower umbrella sedge, Cyperus difformis); assay: Test B flooded paddy test, umbrella sedge; conditions: Cyperus difformis; 250 g ai/ha, Flood; visual rating after 13 to 15 days; scale 0 to 100, 0 is no effect, 100 is complete control; read-out: Plant response rating, Sedge, Umbrella
Summary of the method: (§2)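 Plants grown to the 2-leaf stage; pots flooded to 3 cm above soil and compounds applied directly into the paddy water, depth held throughout. After 13 to 15 days in the greenhouse, injury was rated visually against untreated controls on a 0–100 scale (0 no effect, 100 complete control).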

[9] = tested on: barnyardgrass (Echinochloa crus-galli); assay: Test B flooded paddy test, barnyardgrass; conditions: Echinochloa crus-galli; 250 g ai/ha, Flood; visual rating after 13 to 15 days; scale 0 to 100, 0 is no effect, 100 is complete control; read-out: Plant response rating, Barnyardgrass
Summary of the method: as §2

[10] = tested on: blackgrass (Alopecurus myosuroides); assay: Test A postemergence, blackgrass; conditions: Alopecurus myosuroides, post-emergence, 240 h, postemergence, 0 to 100 scale, 0 is no effect, 100 is complete control, approximately 10 days, read-out: Plant response rating, Blackgrass; for pest or weed control at 125 g/ha: 125 g ai/ha; for pest or weed control at 500 g/ha: 500 g ai/ha
Summary of the method: as §1

[11] = tested on: ducksalad (Heteranthera limosa); assay: Test B flooded paddy test, ducksalad; conditions: Heteranthera limosa; 250 g ai/ha, Flood; visual rating after 13 to 15 days; scale 0 to 100, 0 is no effect, 100 is complete control; read-out: Plant response rating, Ducksalad
Summary of the method: as §2

[12] = tested on: ryegrass, Italian (Italian ryegrass, Lolium multiflorum); assay: Test A preemergence, Italian ryegrass; conditions: Lolium multiflorum, pre-emergence, 240 h, Preemergence, 0 to 100 scale (0 no effect, 100 complete control), read-out: Plant response rating, Ryegrass, Italian; for pest or weed control at 125 g/ha: 125 g ai/ha; for pest or weed control at 500 g/ha: 500 g ai/ha
Summary of the method: as §1

[13] = tested on: pigweed (Amaranthus retroflexus); assay: Test A preemergence, pigweed; conditions: Amaranthus retroflexus, pre-emergence, 240 h, Preemergence, 0 to 100 scale (0 no effect, 100 complete control), read-out: Plant response rating, Pigweed; for pest or weed control at 125 g/ha: 125 g ai/ha; for pest or weed control at 500 g/ha: 500 g ai/ha
Summary of the method: as §1

SMILES: FC(F)(F)COc1c(Cl)cccc1Oc1ncc(Cl)cn1 [Compound 42]
- plant injury at 31 g/ha ([1]; 31 g ai/ha): 0%
- plant injury at 125 g/ha [1]: 0%
- pest or weed control at 31 g/ha ([2]; 31 g ai/ha): 0%
- pest or weed control at 125 g/ha [2]: 0%
- pest or weed control at 31 g/ha ([3]; 31 g ai/ha): 0%
- pest or weed control at 125 g/ha [3]: 10%
- pest or weed control at 31 g/ha ([4]; 31 g ai/ha): 0%
- pest or weed control at 125 g/ha [4]: 0%
- pest or weed control at 31 g/ha ([5]; 31 g ai/ha): 0%
- pest or weed control at 125 g/ha [5]: 10%
- pest or weed control at 31 g/ha (kochia (Kochia scoparia); 31 g ai/ha): 0%
- pest or weed control at 125 g/ha (kochia (Kochia scoparia)): 10%
- Corn plant response rating (crop injury, 0 = no effect, 100 = complete kill) at 31 g/ha (corn (Zea mays); 31 g ai/ha): 0%
- Corn plant response rating (crop injury, 0 = no effect, 100 = complete kill) at 125 g/ha (corn (Zea mays)): 10%
- pest or weed control at 31 g/ha ([6]; 31 g ai/ha): 0%
- pest or weed control at 125 g/ha [6]: 0%
- pest or weed control at 31 g/ha ([7]; 31 g ai/ha): 0%
- pest or weed control at 125 g/ha [7]: 20%
- pest or weed control at 250 g/ha [8]: 60%
- pest or weed control at 250 g/ha [9]: 0%
- pest or weed control at 31 g/ha ([10]; 31 g ai/ha): 0%
- pest or weed control at 125 g/ha [10]: 10%
- pest or weed control at 250 g/ha [11]: 70%
- pest or weed control at 31 g/ha ([12]; 31 g ai/ha): 0%
- pest or weed control at 125 g/ha [12]: 0%
- pest or weed control at 31 g/ha ([13]; 31 g ai/ha): 0%
- pest or weed control at 125 g/ha [13]: 60%

SMILES: N#Cc1cccc(Oc2ncc(Cl)cn2)c1OCC(F)(F)C(F)(F)F [Compound 10, 3-[(5-chloro-2-pyrimidinyl)oxy]-2-(2,2,3,3,3-pentafluoropropoxy)benzonitrile]
- plant injury at 125 g/ha [1]: 30%
- plant injury at 500 g/ha [1]: 90%
- pest or weed control at 125 g/ha [2]: 20%
- pest or weed control at 500 g/ha [2]: 10%
- pest or weed control at 125 g/ha [3]: 100%
- pest or weed control at 500 g/ha [3]: 100%
- pest or weed control at 125 g/ha [4]: 30%
- pest or weed control at 500 g/ha [4]: 90%
- pest or weed control at 125 g/ha [5]: 100%
- pest or weed control at 500 g/ha [5]: 100%
- pest or weed control at 125 g/ha (kochia (Kochia scoparia)): 100%
- pest or weed control at 500 g/ha (kochia (Kochia scoparia)): 100%
- Corn plant response rating (crop injury, 0 = no effect, 100 = complete kill) at 125 g/ha (corn (Zea mays)): 70%
- Corn plant response rating (crop injury, 0 = no effect, 100 = complete kill) at 500 g/ha (corn (Zea mays)): 100%
- pest or weed control at 125 g/ha [6]: 0%
- pest or weed control at 500 g/ha [6]: 50%
- pest or weed control at 125 g/ha [7]: 90%
- pest or weed control at 500 g/ha [7]: 100%
- pest or weed control at 250 g/ha [8]: 85%
- pest or weed control at 250 g/ha [9]: 50%
- pest or weed control at 125 g/ha [10]: 90%
- pest or weed control at 500 g/ha [10]: 100%
- pest or weed control at 250 g/ha [11]: 70%
- pest or weed control at 125 g/ha [12]: 40%
- pest or weed control at 500 g/ha [12]: 100%
- pest or weed control at 125 g/ha [13]: 100%
- pest or weed control at 500 g/ha [13]: 100%

SMILES: Fc1cccc(Oc2ncc(Cl)cn2)c1OCC(F)(F)F [Compound 28]
- plant injury at 125 g/ha [1]: 0%
- plant injury at 500 g/ha [1]: 0%
- pest or weed control at 125 g/ha [2]: 0%
- pest or weed control at 500 g/ha [2]: 0%
- pest or weed control at 125 g/ha [3]: 0%
- pest or weed control at 500 g/ha [3]: 70%
- pest or weed control at 125 g/ha [4]: 0%
- pest or weed control at 500 g/ha [4]: 0%
- pest or weed control at 125 g/ha [5]: 10%
- pest or weed control at 500 g/ha [5]: 70%
- pest or weed control at 125 g/ha (kochia (Kochia scoparia)): 0%
- pest or weed control at 500 g/ha (kochia (Kochia scoparia)): 20%
- Corn plant response rating (crop injury, 0 = no effect, 100 = complete kill) at 125 g/ha (corn (Zea mays)): 0%
- Corn plant response rating (crop injury, 0 = no effect, 100 = complete kill) at 500 g/ha (corn (Zea mays)): 10%
- pest or weed control at 125 g/ha [6]: 0%
- pest or weed control at 500 g/ha [6]: 0%
- pest or weed control at 125 g/ha [7]: 0%
- pest or weed control at 500 g/ha [7]: 20%
- pest or weed control at 250 g/ha [8]: 0%
- pest or weed control at 250 g/ha [9]: 0%
- pest or weed control at 125 g/ha [10]: 0%
- pest or weed control at 500 g/ha [10]: 20%
- pest or weed control at 250 g/ha [11]: 30%
- pest or weed control at 125 g/ha [12]: 0%
- pest or weed control at 500 g/ha [12]: 20%
- pest or weed control at 125 g/ha [13]: 0%
- pest or weed control at 500 g/ha [13]: 100%
